# Assay results published in patent US8440710B2, “HSL inhibitors useful in the treatment of diabetes” (Hoffmann-La Roche Inc., priority 2009, dated 2013).
# Biological target: T1, human HSL (Homo sapiens, UniProt Q05469)
# T1 construct: generate a full length human HSL ORF with a 3′-His6 tag; made in house; host or cells: High 5 insect cells (baculovirus, pFast-BAC)
# T1 sequence (Q05469 1-1076): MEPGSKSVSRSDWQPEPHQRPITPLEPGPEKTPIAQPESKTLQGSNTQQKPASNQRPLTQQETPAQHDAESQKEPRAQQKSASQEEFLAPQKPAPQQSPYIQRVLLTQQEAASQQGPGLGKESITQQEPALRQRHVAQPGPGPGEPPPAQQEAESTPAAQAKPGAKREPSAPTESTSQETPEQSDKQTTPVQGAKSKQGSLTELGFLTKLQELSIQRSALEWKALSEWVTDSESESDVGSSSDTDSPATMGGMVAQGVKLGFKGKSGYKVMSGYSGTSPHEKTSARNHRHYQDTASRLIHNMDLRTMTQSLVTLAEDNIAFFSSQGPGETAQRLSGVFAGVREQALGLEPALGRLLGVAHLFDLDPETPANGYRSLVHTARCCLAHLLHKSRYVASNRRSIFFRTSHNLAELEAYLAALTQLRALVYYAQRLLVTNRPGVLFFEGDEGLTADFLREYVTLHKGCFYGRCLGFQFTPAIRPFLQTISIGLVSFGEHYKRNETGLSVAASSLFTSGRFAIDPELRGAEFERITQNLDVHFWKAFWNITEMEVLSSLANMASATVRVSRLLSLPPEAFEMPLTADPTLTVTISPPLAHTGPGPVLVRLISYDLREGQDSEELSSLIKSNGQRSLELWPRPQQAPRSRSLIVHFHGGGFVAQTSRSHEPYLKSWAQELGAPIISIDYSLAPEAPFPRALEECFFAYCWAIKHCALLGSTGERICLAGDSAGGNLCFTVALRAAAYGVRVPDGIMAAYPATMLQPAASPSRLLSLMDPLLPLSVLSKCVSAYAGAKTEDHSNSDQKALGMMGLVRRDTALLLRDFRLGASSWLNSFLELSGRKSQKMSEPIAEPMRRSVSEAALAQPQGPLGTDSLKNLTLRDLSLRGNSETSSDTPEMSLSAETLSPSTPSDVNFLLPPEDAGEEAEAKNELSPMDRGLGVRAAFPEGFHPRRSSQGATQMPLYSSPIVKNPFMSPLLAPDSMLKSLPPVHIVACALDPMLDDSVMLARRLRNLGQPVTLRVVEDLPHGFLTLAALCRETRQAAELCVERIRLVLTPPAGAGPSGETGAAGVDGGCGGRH
# Assay: Human Hormone-Sensitive Lipase (HSL) enzyme inhibition assay (colorimetric, DMPT substrate)
# Type: biochemical
# Conditions: human full length HSL-His6, 2,3-dimercapto-1-propanol tributyrate substrate, 37° C. 20 minutes, absorbance at 405 nm; read-out: HSL hum IC50
# Method in brief: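 Full-length human HSL with C-terminal His6, expressed in baculovirus-infected High 5 cells and Ni-NTA purified, was added (15 ug/ml stock) to 1.5 mM DMPT in 100 mM MOPS pH 7.2, 0.2 mg/ml fatty acid-free BSA containing compound. After 20 min at 37 °C, DTNB with SDS/Triton X-100 was added; A405 read after 15 min at RT.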
row,IC50 [nM],SMILES
1,80,"CCC[C@]1(O)CC[C@]2(CCN(c3ccc(OCCCOC)cc3)C2=O)CC1 [Example 94, (5α,8α)-8-Hydroxy-2-[4-(3-methoxy-propoxy)-phenyl]-8-propyl-2-aza-spiro[4.5]decan-1-one]"
2,240,"CCC[C@]1(O)CC[C@]2(CCN(c3ccc(OCCOC)cc3)C2=O)CC1 [Example 95, (5α,8α)-8-Hydroxy-2-[4-(2-methoxy-ethoxy)-phenyl]-8-propyl-2-aza-spiro[4.5]decan-1-one]"
3,60,"CCCC[C@]1(O)CC[C@]2(CCN(c3ccc(OCCOC)cc3)C2=O)CC1 [Example 96, (5α,8α)-8-Butyl-8-hydroxy-2-[4-(2-methoxy-ethoxy)-phenyl]-2-aza-spiro[4.5]decan-1-one]"
4,1820,"CCCC[C@]1(O)CC[C@@]2(CCN(c3ccc(OCCOC)cc3)C2=O)CC1 [Example 97, (5α,8β)-8-Butyl-8-hydroxy-2-[4-(2-methoxy-ethoxy)-phenyl]-2-aza-spiro[4.5]decan-1-one]"
5,2500,"O=C1N(c2ccc(OCCC(F)(F)F)cc2)CC[C@]12CC[C@@H](O)CC2 [Example 98, (5α,8β)-8-Hydroxy-2-[4-(3,3,3-trifluoro-propoxy)-phenyl]-2-aza-spiro[4.5]decan-1-one]"
6,30,"CCC[C@]1(O)CC[C@]2(CCN(c3ccc(OCCC(F)(F)F)cc3)C2=O)CC1 [Example 99, (5α,8α)-8-Hydroxy-8-propyl-2-[4-(3,3,3-trifluoro-propoxy)-phenyl]-2-aza-spiro[4.5]decan-1-one]"
7,360,"CCC[C@]1(O)CC[C@@]2(CCN(c3ccc(OCCC(F)(F)F)cc3)C2=O)CC1 [Example 100, (5α,8β)-8-Hydroxy-8-propyl-2-[4-(3,3,3-trifluoro-propoxy)-phenyl]-2-aza-spiro[4.5]decan-1-one]"
8,110,"CCC[C@]1(O)CC[C@]2(CCN(c3ccc(C(C)C)nc3)C2=O)CC1 [Example 101, (5α,8α)-8-Hydroxy-2-(6-isopropylpyridin-3-yl)-8-propyl-2-aza-spiro[4.5]decan-1-one]"
9,100,"CC(C)c1ccc(N2CC[C@]3(CC[C@@](O)(C(C)C)CC3)C2=O)cn1 [Example 102, (5α,8α)-8-Hydroxy-8-isopropyl-2-(6-isopropylpyridin-3-yl)-2-aza-spiro[4.5]decan-1-one]"
10,20,"CC(C)[C@]1(O)CC[C@]2(CCN(c3ccc(OCC(F)(F)F)cc3)C2=O)CC1 [Example 103, (5α,8α)-8-Hydroxy-8-isopropyl-2-[4-(2,2,2-trifluoro-ethoxy)-phenyl]-2-aza-spiro[4.5]decan-1-one]"
11,20,"CCC[C@]1(O)CC[C@]2(CCN(c3ccc(OCC(F)(F)F)cc3)C2=O)CC1 [Example 104, 8-Hydroxy-8-propyl-2-[4-(2,2,2-trifluoro-ethoxy)-phenyl]-2-aza-spiro[4.5]decan-1-one]"
12,30,"C=C(C)[C@]1(O)CC[C@]2(CCN(c3ccc(OCC(F)(F)F)cc3)C2=O)CC1 [Example 105, (5α,8α)-8-Hydroxy-8-(prop-1-en-2-yl)-2-(4-(2,2,2-trifluoroethoxy)phenyl)-2-aza-spiro[4.5]decan-1-one]"
13,1350,"C=C(C)[C@]1(O)CC[C@@]2(CCN(c3ccc(OCC(F)(F)F)cc3)C2=O)CC1 [Example 106, (5α,8β)-8-Hydroxy-8-(prop-1-en-2-yl)-2-(4-(2,2,2-trifluoroethoxy)phenyl)-2-aza-spiro[4.5]decan-1-one]"
14,2030,"CC(C)[C@]1(O)CC[C@@]2(CCN(c3ccc(OCC(F)(F)F)cc3)C2=O)CC1 [Example 107, (5α,8β)-8-Hydroxy-8-isopropyl-2-(4-(2,2,2-trifluoroethoxy)phenyl)-2-aza-spiro[4.5]decan-1-one]"
15,20,"CC(C)[C@]1(O)CC[C@]2(CCN(c3ccc(OCC(F)(F)F)nc3)C2=O)CC1 [Example 108, (5α,8α)-8-Hydroxy-8-isopropyl-2-(6-(2,2,2-trifluoroethoxy)pyridin-3-yl)-2-aza-spiro[4.5]decan-1-one]"
16,2220,"CC(C)[C@]1(O)CC[C@@]2(CCN(c3ccc(OCC(F)(F)F)nc3)C2=O)CC1 [Example 109, (5α,8β)-8-Hydroxy-8-isopropyl-2-(6-(2,2,2-trifluoroethoxy)pyridin-3-yl)-2-aza-spiro[4.5]decan-1-one]"

row,IC50 [nM],SMILES
1,190,"COC[C@]1(O)CC[C@]2(CCN(c3ccc(OCC(F)(F)F)nc3)C2=O)CC1 [Example 110, (5α,8α)-8-Hydroxy-8-(methoxymethyl)-2-(6-(2,2,2-trifluoroethoxy)pyridin-3-yl)-2-aza-spiro[4.5]decan-1-one]"
2,100,"CC#C[C@]1(O)CC[C@]2(CCN(c3ccc(OCC(F)(F)F)cc3)C2=O)CC1 [Example 111, (5α,8α)-8-Hydroxy-8-prop-1-ynyl-2-[4-(2,2,2-trifluoro-ethoxy)phenyl]-2-aza-spiro[4.5]decan-1-one]"
3,20,"O=C1N(c2ccc(OC(F)(F)F)cc2)CC[C@]12CC[C@@](O)(C(F)(F)F)CC2 [Example 112, (5α,8α)-8-Hydroxy-2-(4-trifluoromethoxy-phenyl)-8-trifluoromethyl-2-aza-spiro[4.5]decan-1-one]"
4,2180,"O=C1N(c2ccc(OC(F)(F)F)cc2)CC[C@]12CC[C@](O)(C(F)(F)F)CC2 [Example 113, (5α,8β)-8-Hydroxy-2-(4-trifluoromethoxy-phenyl)-8-trifluoromethyl-2-aza-spiro[4.5]decan-1-one]"
5,30,"COC[C@]1(O)CC[C@]2(CCN(c3ccc(OC(F)(F)F)cc3)C2=O)CC1 [Example 114, (5α,8α)-8-Hydroxy-8-methoxymethyl-2-(4-trifluoromethoxy-phenyl)-2-aza-spiro[4.5]decan-1-one]"
6,680,"COC[C@]1(O)CC[C@@]2(CCN(c3ccc(OC(F)(F)F)cc3)C2=O)CC1 [Example 115, (5α,8β)-8-Hydroxy-8-methoxymethyl-2-(4-trifluoromethoxy-phenyl)-2-aza-spiro[4.5]decan-1-one]"
7,10,"CCOC(=O)C[C@]1(O)CC[C@]2(CCN(c3ccc(OC(F)(F)F)cc3)C2=O)CC1 [Example 116, [(5α,8α)-8-Hydroxy-1-oxo-2-(4-trifluoromethoxy-phenyl)-2-aza-spiro[4.5]dec-8-yl]-acetic acid ethyl ester]"
8,20,"CCOC[C@]1(O)CC[C@]2(CCN(c3ccc(OC(F)(F)F)cc3)C2=O)CC1 [Example 117, (5α,8α)-8-Ethoxymethyl-8-hydroxy-2-(4-trifluoromethoxy-phenyl)-2-aza-spiro[4.5]decan-1-one]"
9,100,"O=C1N(c2ccc(OC(F)(F)F)cc2)CC[C@]12CC[C@@](O)(CCO)CC2 [Example 118, (5α,8α)-8-Hydroxy-8-(2-hydroxy-ethyl)-2-(4-trifluoromethoxy-phenyl)-2-aza-spiro[4.5]decan-1-one]"
10,30,"COCC[C@]1(O)CC[C@]2(CCN(c3ccc(OC(F)(F)F)cc3)C2=O)CC1 [Example 119, (5α,8α)-8-Hydroxy-8-(2-methoxy-ethyl)-2-(4-trifluoromethoxy-phenyl)-2-aza-spiro[4.5]decan-1-one]"
11,100,"COCC[C@]1(OC)CC[C@]2(CCN(c3ccc(OC(F)(F)F)cc3)C2=O)CC1 [Example 120, (5α,8α)-8-Methoxy-8-(2-methoxy-ethyl)-2-(4-trifluoromethoxy-phenyl)-2-aza-spiro[4.5]decan-1-one]"
12,100,"COC[C@]1(O)CC[C@]2(CCN(c3ccc(C(F)(F)F)cc3)C2=O)CC1 [Example 121, (5α,8α)-8-Hydroxy-8-methoxymethyl-2-(4-trifluoromethyl-phenyl)-2-aza-spiro[4.5]decan-1-one]"
13,50,"CCC[C@]1(O)CC[C@]2(CCN(c3ccc(CCOC)cc3)C2=O)CC1 [Example 122, (5α,8α)-8-Hydroxy-2-[4-(2-methoxy-ethyl)-phenyl]-8-propyl-2-aza-spiro[4.5]decan-1-one]"
14,420,"COCCc1ccc(N2CC[C@]3(CC[C@@](O)(C(F)(F)F)CC3)C2=O)cc1 [Example 123, (5α,8α)-8-Hydroxy-2-[4-(2-methoxy-ethyl)-phenyl]-8-trifluoromethyl-2-aza-spiro[4.5]decan-1-one]"
15,20,"COCCc1ccc(N2CC[C@]3(CC[C@@](O)(CC(C)C)CC3)C2=O)cc1 [Example 124, (5α,8α)-8-Hydroxy-8-isobutyl-2-[4-(2-methoxy-ethyl)-phenyl]-2-aza-spiro[4.5]decan-1-one]"
